For orientation: IC50 means the concentration at which inhibition is half-maximal.

Where only a bound is given, the exact number is not on record here.

The first assay deals with T1, MMP-13 catalytic domain (MMP-13CD) (Homo sapiens, UniProt P45452).
T1 construct: use the catalytic domain of the MMP-13 enzyme, namely matrix metalloproteinase-13 catalytic domain (“MMP-13CD”), rather than the corresponding full-length enzyme
Nature of the assay: Inhibition of MMP-13 catalytic domain (thiopeptolide substrate hydrolysis). It is filed as biochemical. Conditions: Biological Table 1; read-out: MMP-13CD IC50. The text has this:
The assays measure the amount by which a test compound reduces the hydrolysis of a thiopeptolide substrate catalyzed by a matrix metalloproteinase enzyme. Such assays are described in detail by Ye et al., in Biochemistry, 1992;31(45):11231-11235, which is incorporated herein by reference. One such assay is described below in Biological Method 1.
Some of the particular methods described below use the catalytic domain of the MMP-13 enzyme, namely matrix metalloproteinase-13 catalytic domain (“MMP-13CD”), rather than the corresponding full-length enzyme, MMP-13. It has been shown previously by Ye Qi-Zhuang, Hupe D., and Johnson L. (Current Medicinal Chemistry, 1996;3:407-418) that inhibitor activity against a catalytic domain of an MMP is predictive of the inhibitor activity against the respective full-length MMP enzyme.
Thiopeptolide substrates show virtually no decomposition or hydrolysis at or below neutral pH in the absence of a matrix metalloproteinase enzyme. A typical thiopeptolide substrate commonly utilized for assays is Ac-Pro-Leu-Gly-thioester-Leu-Leu-Gly-OEt. A 100 μL assay mixture will contain 50 mM of N-2-hydroxyethylpiperazine-N′-2-ethanesulfonic acid buffer (“HEPES,” pH 7.0), 10 mM CaCl2, 100 μM thiopeptolide substrate, and 1 mM 5,5′-dithio-bis-(2-nitro-benzoic acid) (DTNB). The thiopeptolide substrate concentration may be varied, for example from 10 to 800 μM to obtain Km and Kcat values. The change in absorbance at 405 nm is monitored on a Thermo Max microplate reader (molecular Devices, Menlo Park, Calif.) at room temperature (22° C.). The calculation of the amount of hydrolysis of the thiopeptolide substrate is based on E412=13600 M^−1 cm^−1 for the DTNB-derived product 3-carboxy-4-nitrothiophenoxide. Assays are carried out with and without matrix metalloproteinase inhibitor compounds, and the amount of hydrolysis is compared for a determination of inhibitory activity of the test compounds.
Test compounds were evaluated at various concentrations in order to determine their respective IC50 values, the micromolar concentration of compound required to cause a 50% inhibition of catalytic activity of the respective enzyme.
As to `O=C(NCc1cncnc1)c1ccc2ccn(CCOc3ccccc3)c(=O)c2c1` [Example 46, 1-oxo-2-(2-phenoxyethyl)-1,2-dihydroisoquinoline-7-carboxylic Acid (pyrimidin-5-ylmethyl)-amide], the IC50 is greater than 100 µM. `COc1ccc(CNC(=O)c2ccc3ccn(CCOc4ccccc4)c(=O)c3c2)cc1` [Example 44, 1-oxo-2-(2-phenoxyethyl)-1,2-dihydroisoquinoline-7-carboxylic Acid 4-methoxybenzylamide]: the IC50 came out at 7.5 µM. On the same count and under the same terms, in the case of `Cc1ccc(CNC(=O)c2ccc3ccn(CCOc4ccccc4)c(=O)c3c2)cc1` [Example 47, 1-oxo-2-(2-phenoxyethyl)-1,2-dihydroisoquinoline-7-carboxylic Acid 4-methylbenzamide] it was greater than 10 µM; in that of `O=C(NCc1cncnc1)c1ccc2ccn(Cc3ccc(F)c(F)c3)c(=O)c2c1` [Example 26, 2-(3,4-difluorobenzyl)-1-oxo-1,2-dihydroisoquinoline-7-carboxylic Acid (pyrimidin-5-ylmethyl)-amide], 12 µM; in that of `O=C(NCCn1cccc1)c1ccc2ccn(Cc3ccc(-c4nn[nH]n4)cc3)c(=O)c2c1` [Example 63, 1-oxo-2-[4-(2H-tetrazol-5-yl)benzyl]-1,2-dihydroisoquinoline-7-carboxylic Acid (2-pyrrol-1-yl-ethyl)amide], 49 µM.

In the case of `CSc1ccc(CNC(=O)c2ccc3ccn(Cc4ccc(S(C)(=O)=O)cc4)c(=O)c3c2)cc1` [Example 56, 2-(4-methane-sulfonylbenzyl)-1-oxo-1,2-dihydro-isoquinoline-7-carboxylic Acid 4-methyl-sulfanylbenzylamide], the 50% inhibitory concentration (IC50) worked out at 2.2 µM. The same measure, in the same setting: the value for `O=C(NCc1ccncc1)c1ccc2ccn(CCOc3ccccc3)c(=O)c2c1` [Example 41, 1-oxo-2-(2-phenoxyethyl)-1,2-dihydroisoquinoline-7-carboxylic Acid (pyridin-4-ylmethyl)amide] was 26 µM; that for `COc1cccc(CNC(=O)c2ccc3ccn(CCOc4ccccc4)c(=O)c3c2)c1` [Example 45, 1-oxo-2-(2-phenoxyethyl)-1,2-dihydroisoquinoline-7-carboxylic Acid 3-methoxybenzylamide] was 1.2 µM; that for `N#Cc1ccc(Cn2ccc3ccc(C(=O)NCc4ccncc4)cc3c2=O)cc1` [Example 33, 2-(4-cyanobenzyl)-1-oxo-1,2-dihydro-isoquinoline-7-carboxylic Acid (pyridin-4-ylmethyl)amide] was 1.3 µM. Same read-out and setting: the value for `COc1cc(CNC(=O)c2ccc3ccn(CCOc4ccccc4)c(=O)c3c2)ccn1` [Example 43, 1-oxo-2-(2-phenoxyethyl)-1,2-dihydroisoquinoline-7-carboxylic Acid (2-methoxypyridin-4-ylmethyl)amide] was 3.8 µM; that for `CS(=O)(=O)c1ccc(Cn2ccc3ccc(C(=O)NCc4cccnc4)cc3c2=O)cc1` [Example 50, 2-(4-methane-sulfonylbenzyl)-1-oxo-1,2-dihydro-isoquinoline-7-carboxylic Acid (pyridin-3-ylmethyl)amide] was 7.4 µM. Same read-out and setting: the value for `CS(=O)(=O)c1ccc(Cn2ccc3ccc(C(=O)NCc4cncnc4)cc3c2=O)cc1` [Example 54, 2-(4-methane-sulfonylbenzyl)-1-oxo-1,2-dihydro-isoquinoline-7-carboxylic Acid (pyrimidin-5-ylmethyl)amide] was 35 µM.

Still in this assay, the particulars now being: Biological Table 2, compounds of Example 66; read-out: MMP-13CD IC50.
As to `CCOC(Cn1ccc2ccc(C#CCc3ccccc3)cc2c1=O)OCC` [Example 66r, 2-(2,2-Diethoxy-ethyl)-7-(3-phenyl-prop-1-ynyl)-2H-isoquinolin-1-one], the IC50 amounted to 33 µM.

Take `N#CCCCCCn1ccc2ccc(C#CCc3ccccc3)cc2c1=O` [Example 66af, 6-[1-Oxo-7-(3-phenyl-prop-1-ynyl)-1H-isoquinolin-2-yl]-hexanenitrile]: the IC50 turned out to be 8.6 µM. Take `COC(=O)CCn1ccc2ccc(C#CCc3ccccc3)cc2c1=O` [Example 66k, 3-[1-Oxo-7-(3-phenyl-prop-1-ynyl)-1H-isoquinolin-2-yl]-propionic acid methyl ester]: the IC50 is greater than 100 µM.

As to `O=c1c2cc(C#CCc3ccccc3)ccc2ccn1CC[S+]([O-])c1ccccc1` (centres unmarked) [Example 66z, 2-(2-Benzenesulfinyl-ethyl)-7-(3-phenyl-prop-1-ynyl)-2H-isoquinolin-1-one], the IC50 was greater than 100 µM. With `N#CCCCCn1ccc2ccc(C#CCc3ccccc3)cc2c1=O` [Example 66j, 5-[1-Oxo-7-(3-phenyl-prop-1-ynyl)-1H-isoquinolin-2-yl]-pentanenitrile], the IC50 was 11 µM. The same measure, in the same setting: the value for `CCOC(=O)Cn1ccc2ccc(C#CCc3ccccc3)cc2c1=O` [Example 66x, [1-Oxo-7-(3-phenyl-prop-1-ynyl)-1H-isoquinolin-2-yl]-acetic acid ethyl ester] was 11 µM; that for `COCCn1ccc2ccc(C#CCc3ccccc3)cc2c1=O` [Example 66w, 2-(2-Methoxy-ethyl)-7-(3-phenyl-prop-1-ynyl)-2H-isoquinolin-1-one] was greater than 30 µM; that for `CCOC(=O)CCCCCn1ccc2ccc(C#CCc3ccccc3)cc2c1=O` [Example 66v, 6-[1-Oxo-7-(3-phenyl-prop-1-ynyl)-1H-isoquinolin-2-yl]-hexanoic acid ethyl ester] was 8.7 µM.

For `CC(=O)OCCCCn1ccc2ccc(C#CCc3ccccc3)cc2c1=O` [Example 66l, Acetic acid 4-[1-oxo-7-(3-phenyl-prop-1-ynyl)-1H-isoquinolin-2-yl]-butyl ester], the IC50 came out at 14 µM. Same read-out and setting: in the case of `O=c1c2cc(C#CCc3ccccc3)ccc2ccn1CC(F)(F)F` [Example 66ah, 7-(3-Phenyl-prop-1-ynyl)-2-(2,2,2-trifluoro-ethyl)-2H-isoquinolin-1-one] it was 24 µM. For `O=c1c2cc(C#CCc3ccccc3)ccc2ccn1CC(O)CO` (centres unmarked) [Example 66e, 2-(2,3-Dihydroxy-propyl)-7-(3-phenyl-prop-1-ynyl)-2H-isoquinolin-1-one], the IC50 was 50 µM. For `O=c1c2cc(C#CCc3ccccc3)ccc2ccn1CCC1OCCO1` [Example 66m, 2-(2-1,3-Dioxolan-2-yl-ethyl)-7-(3-phenyl-prop-1-ynyl)-2H-isoquinolin-1-one], the IC50 stood at 24 µM.

For `COc1ccc2nc(Cn3ccc4ccc(C#CCc5ccccc5)cc4c3=O)c(=O)oc2c1` [Example 66u, 7-Methoxy-3-[1-oxo-7-(3-phenyl-prop-1-ynyl)-1H-isoquinolin-2-ylmethyl]-1,4-benzoxazin-2-one], the IC50 was found to be 11 µM. As to `O=c1c2cc(C#CCc3ccccc3)ccc2ccn1CCCC(F)(F)F` [Example 66ai, 7-(3-Phenyl-prop-1-ynyl)-2-(4,4,4-trifluoro-butyl)-2H-isoquinolin-1-one], the IC50 amounted to 14 µM. Turning to `CC1OCCCC1n1ccc2ccc(C#CCc3ccccc3)cc2c1=O` (centres unmarked) [Example 66g, 2-(2-Methyl-tetrahydro-pyran-3-yl)-7-(3-phenyl-prop-1-ynyl)-2H-isoquinolin-1-one], the IC50 was greater than 30 µM. Same read-out and setting: the value for `CC(C)(CO)Cn1ccc2ccc(C#CCc3ccccc3)cc2c1=O` [Example 66y, 2-(3-Hydroxy-2,2-dimethyl-propyl)-7-(3-phenyl-prop-1-ynyl)-2H-isoquinolin-1-one] was 20 µM.

The assay is the same for the next values; noted with them: read-out: IC50 with MMP-13 catalytic domain.
As to `O=c1c2cc(C#CCc3ccccc3)ccc2ccn1Cc1cccc(Cl)c1` [Example 10, 2-(3-Chlorobenzyl)-7-(3-phenylprop-1-ynyl)-2H-isoquinolin-1-one], the concentration for half-maximal inhibition (IC50) is 0.052 µM.

The values are drawn from patent publication US20040044000A1, “Isoquinoline derivatives as matrix metalloproteinase inhibitors” (priority 2002, published 2004).
